Our source for the Activity, inhibition and viability values is ChEMBL document CHEMBL6153118, “Structure Optimization of Natural Product Catalpol to Obtain Novel and Potent Analogs against Heart Failure” (J Med Chem, 2025).

The structures appear in SMILES notation. Calls of active or inactive are those of the source. The rule behind the calls is not given here.

In experiment [1] the test system is Mus musculus. In words: Improvement in motor ability in ISO-induced heart failure C57BL/6J mouse assessed as increase in grip strength at 5 to 20 mg/kg/day, po for 14 days. It counts as functional, organism-based. Conditions: dose 5-20 mg/kg/day, time 14.0 day.
In experiment [2] the test system is Mus musculus. In words: Inhibition of cardiomyocyte hypertrophy in ISO-induced heart failure C57BL/6J mouse at 5 to 20 mg/kg/day, po for 14 days. Particulars: dose 5-20 mg/kg/day, time 14.0 day. Format: functional, organism-based.
In experiment [3] the test system is H9c2. In words: Cytoprotective activity against OGD-induced myocardial ischemic injury in rat H9c2 cells assessed as decrease in ROS level at 5 to 50 uM preincubated for 12 hrs followed by exposure to OGD condition for 3 hrs by DCFH-DA probe based analysis. Format: functional, cell-based. Particulars: dose 5-50 µM, time 15.0 hrs.
The subject of experiment [4] is H9c2. Nature of the experiment: Cytoprotective activity against OGD-induced myocardial ischemic injury in rat H9c2 cells assessed as decrease in LDH level at 5 to 50 uM preincubated for 12 hrs followed by exposure to OGD condition for 3 hrs by UV absorption analysis. It counts as functional, cell-based. Particulars: dose 5-50 µM, time 15.0 hrs.
The test system of experiment [5] is Mus musculus. In words: Inhibition of cardiac fibrosis in ISO-induced heart failure C57BL/6J mouse at 5 to 20 mg/kg/day, po for 14 days. It counts as functional, organism-based. Particulars: dose 5-20 mg/kg/day, time 14.0 day.
Experiment [6] has as its system Mus musculus. Nature of the experiment: Cardioprotective activity in ISO-induced heart failure C57BL/6J mouse assessed as ejection fraction in heart at 5 mg/kg/day, po for 14 days by echocardiography (reference value: 49.55 +/- 2.41 %). Format: functional. Particulars: time 14 day.
Experiment [7] has as its system Mus musculus. Nature of the experiment: Improvement in motor ability in ISO-induced heart failure C57BL/6J mouse assessed as increase in time of remote motion with rotarod at 5 to 20 mg/kg/day, po for 14 days. It counts as functional, organism-based. Conditions: dose 5-20 mg/kg/day, time 14.0 day.
Experiment [8] concerns Mus musculus. Nature of the experiment: Cardioprotective activity in ISO-induced heart failure C57BL/6J mouse assessed as fractional shortening in heart at 5 mg/kg/day, po for 14 days by echocardiography (reference value: 24.49 +/- 1.49 %). Format: functional. Particulars: time 14 day.
The test system of experiment [9] is Mus musculus. Nature of the experiment: Cardioprotective activity in ISO-induced heart failure C57BL/6J mouse assessed as ejection fraction in heart at 20 mg/kg/day, po for 14 days by echocardiography (reference value: 49.55 +/- 2.41 %). Format: functional. Particulars: time 14 day.
Experiment [10] deals with H9c2. Nature of the experiment: Cytoprotective activity against OGD-induced myocardial ischemic injury in rat H9c2 cells assessed as cell viability at 50 uM preincubated for 12 hrs followed by exposure to OGD condition for 3 hrs by CCK8 assay (reference value: 49.23 to 50.05 %). It counts as functional. Conditions: time 15 hrs, read-out: Activity.
Experiment [11] deals with H9c2. Nature of the experiment: Cytoprotective activity against OGD-induced myocardial ischemic injury in rat H9c2 cells assessed as cell viability at 5 uM preincubated for 12 hrs followed by exposure to OGD condition for 3 hrs by CCK8 assay (reference value: 49.23 to 50.05 %). Format: functional. Particulars: time 15 hrs, read-out: Activity.
The subject of experiment [12] is Cardiac muscle cell. In words: Cytoprotective activity against OGD-induced myocardial ischemic injury in neonatal rat primary cardiomyocytes assessed as decrease in cellular damage at 1 uM preincubated for 12 hrs followed by exposure to OGD condition for 3 hrs. Format: functional, cell-based. Conditions: time 15.0 hrs.
For experiment [13], the system named is Mus musculus. In words: Cardioprotective activity in ISO-induced heart failure C57BL/6J mouse assessed as fractional shortening in heart at 20 mg/kg/day, po for 14 days by echocardiography (reference value: 24.49 +/- 1.49 %). It counts as functional. Particulars: time 14 day.
For experiment [14], the system named is H9c2. In words: Cytoprotective activity against OGD-induced myocardial ischemic injury in rat H9c2 cells assessed as decrease in cell death at 5 to 50 uM preincubated for 12 hrs followed by exposure to OGD condition for 3 hrs by crystal violet staining based analysis. Format: functional. Particulars: dose 5-50 µM, time 15.0 hrs.

For `CC(C)(C)c1ccc(C(=O)NC[C@]23O[C@H]2[C@@H](O)[C@@H]2C=CO[C@@H](O[C@@H]4O[C@H](CO)[C@@H](O)[C@H](O)[C@H]4O)[C@@H]23)cc1`, the result in experiment [1], in experiment [3], in experiment [4], in experiment [7] and in experiment [12] was Active. Moreover, in [2], the inhibition entry was “inactive”. The inhibition result in [5] was “Active”. For the same molecule, the Activity in experiment [6] is on record as 55.41%; in experiment [8] it was 28.23%; in [9], 53.73%; in [13], 27.5%; in experiment [14], “Active; Exhibited Superior Protective Efficacy Than Catal-Pol”. The viability at 50 µM in experiment [10] is 70.9%. Also, in experiment [11], the viability at 5 µM was 60.7%.
